{
  "source": "patent US20260021122A1",
  "about": "“CANNABINOIDS AND USES THEREOF IN TREATMENT OF A DISEASE” (TECHNION RESEARCH & DEVELOPMENT FOUNDATION LIMITED, priority 2022, published 2026)",
  "key": {"CSF-1 [1]": {"tested_on": "CSF-1", "experiment": "ELISA of secreted CSF-1 in media of B16F10 cells", "format": "cell-based, murine", "conditions": "summary statement of the discussion", "method": "(§1) The media from B16F10 and A375 cell lines, or homogenates from B16F10 tumors, that were treated as indicated for 24 hours, were collected and the protein concentration of MCP-1, MIP-2, C-C Motif Chemokine Ligand 5 (CCL5), and CSF-1 were measured by Quantikine Mouse M-CSF Immunoassay solid-phase ELISA kit (R&D systems, Cat #MMC00) as described in the manufacture's protocol."}, "B16F10 tumors": {"tested_on": "B16F10 tumors", "experiment": "Mouse tumor model: B16F10 cells transplanted subcutaneously, tumor volume and weight", "format": "in vivo, mice", "conditions": "CBG 2.5 mg/kg or 3704 3.75 mg/kg intraperitoneally", "method": "All procedures involving animals were conducted in accordance with the standards approved by the Technion Animal Care and Use Ethics Committee and the studies adhered to the Technion Code for Experimentation on Animals. To induce tumors, B16F10 cells grown to a confluency of ˜75% were resuspended to a concentration of 1×10^6 cells in 200 ul sterile PBS and transplanted subcutaneously into the right flank of 8-10-week-old female WT C57B6/L mice (Envigo, 16.8±0.78 g). After either 24 hours or 3 days, mice were randomly divided into groups and treated as indicated with either a vehicle of Cannabis extract solvent (18:1:1 ratio of DDW+0.9% NaCl, Sigma, Cat #S7653; Cremophor® EL, Cat #238470; Ethanol, Sigma, #Cat 111727), CAN (100 mg/kg), synthetic CBG (2.5 mg/kg) or 3704 (3.75 mg/kg) for 5 days, then 2 days off and again for 4 days. Tumor volume was measured from day 10 to 14 (endpoint) using a vernier caliper and calculated according to the formula […] and all tumors were weighed at the endpoint of the experiments with an analytical scale."}, "BM-MDSCs [2]": {"tested_on": "BM-MDSCs", "experiment": "iNOS and Arg-1 expression by BM-MDSC subpopulations (flow cytometry, western blot)", "format": "cell-based, mice", "method": "(§2) Bone-marrow-derived cells (BMDCs) were isolated from the fibula and tibia bones of healthy female WT C57BL/6 mice (8-12-week-old). Red blood cells were removed by using red blood lysis buffer (Biological industries, Cat #01-888-1B). Remaining cells were counted and 1×10^6 cells were seeded in complete RPMI (Sigma, Cat #R8758) containing 10% FBS (Sigma, Cat #F7524), 1% L-Glutamine (Sartorius, Cat #03-020-1B), 1% Penicillin/[…] (Sartorius, Cat #03-031-1B), 1% MEM-Eagle (Sartorius, Cat #01-340-1B), 2.5% HEPES (Sartorius, Cat #03-025-1B) and 1% sodium pyruvate (Sartorius, Cat #03-042-1B) and supplemented with 20 ng/ml of GM-CSF and IL-6 (R&D systems, 415-ML and 406-ML). Cells were incubated at 37° C. and 5% CO2 for 4 days and then treated with conditioned media, which was the media collected from B16F10 cells treated with either DMSO, CBG, or the high-CBG extract 3704 as indicated.\n(§3) To differentiate the subpopulation of myeloid cells, BMDCs and myeloid cells from tumors were stained for the extracellular makers Ly6C-BV421 (BioLegend, Clone HK1.4; Cat #128032) or Ly6C-FITC (BioLegend, Cat #128096, Clone HK1.4), Ly6G-APC (BioLegend, Clone 1A8; Cat #127614), Ly6G-BV421 (BioLegend, Cat #127627, clone 1A8), PECy7-F4/80 (BioLegend, Clone BM8 Cat #123113), BV605-CD86 (BioLegend, Clone GL-1, Cat #105037), APC-CD206 (Biolegend, Clone CO68C2, Cat #141708) and BV711-CD45 (BioLegend, Clone 30F11, Cat #103147). Cells from tumors were also stained with PE-CD3+ (BioLegend, Clone 17A2, Cat #100206) to identify the overall T-cell population. To characterize the cells in the subpopulations, cells were fixed and permeabilized with the Intracellular Fixation and Permeabilization Buffer Set (eBioscience Cat #88-8824-00) and stained with FITC-iNOS (Thermo, Clone CXNFT, Cat #53592082) or FITC-Arginase-1 (Thermo, Clone AlexF5, Cat #53-3697-82). These cells were also stained with Fixable viability Dye (FVD)-eflour 780 (Thermo, Cat #65086514) to exclude dead cells.\nTo analyze the two subpopulations of BM-MDSCs, the cells were stained with Ly6C-BV421 and Ly6G-APC and sorted into MO-MDSC or PMN-MDSC using the BD FACSAria III Cell Sorter instrument (BD Biosciences). Directly after sorting, the two separate subpopulations were co-cultured with CD8+ T-cells or lysed and further analyzed via western blot.\nB16F10 cells, and sorted MO-MDSC and PMN-MDSC achieved as described, were lysed in RIPA buffer (Sigma, Cat #R0278) supplemented with Protease/Phosphatase Inhibitor Cocktail (Cell signaling, Cat #5872S) on ice for 20 minutes. Total protein concentrations were measured using the detergent-compatible protein assay (Bio-Rad, Cat #5000113 and 5000114) and equal amounts were loaded onto a 4%-20% gradient gel (Invitrogen, Cat #XPO4202) and semidry transferred into a nitrocellulose membrane (Bio-Rad, Cat #1704159). The membrane was incubated with the primary antibodies CSF-1 (Santa Cruz; Clone D-4; #sc-365779), iNOS (Abcam; Clone #ab15323) or GAPDH (Cell Signaling Technology, Cat #14C10). Secondary antibodies used in this study were HRP-conjugated and the membranes were developed with the ECL detection kit (Millipore, Cat #WBLUR)."}, "BM-MDSCs [3]": {"tested_on": "BM-MDSCs", "experiment": "BM-MDSCs treated with conditioned media from treated B16F10 cells: myeloid subpopulation frequencies and F4/80", "format": "cell-based, mice", "conditions": "for reduction in the F4/80 MFI in Ly6C+ cells compared to DMSO: CM from treated B16F10 cells", "method": "as §2, §3"}, "CSF-1 [4]": {"tested_on": "CSF-1", "experiment": "ELISA of secreted CSF-1 in media of A375 cells", "format": "cell-based, human", "conditions": "1.5 μg/ml CBG, 2 μg/ml 3704, 6 μg/ml CAN", "method": "as §1"}, "[5]": {"conditions": "CM of treated B16F10 vs CM of DMSO-treated B16F10, 24 hours, flow cytometry"}},
  "data": [
    {"smiles": "CCCCCc1cc(O)c(C/C=C(\\C)CCC=C(C)C)c(O)c1", "note": "[CBG, cannabigerol]", "values": [
      {"measurement": "efficiency of CSF-1 secretion reduction, comparison between treatments (discussion)", "setting": "CSF-1 [1]", "value": "reduce CSF-1 secretion more efficiently than the psychoactive THC"},
      {"measurement": "Tumor weight on day 14 compared to vehicle", "setting": "B16F10 tumors; nine injections", "value": "weighed significantly less"},
      {"measurement": "Tumor volume compared to the vehicle-treated group", "setting": "B16F10 tumors; nine injections from day 3, measured daily day 10 to 14", "value": "significantly lower in the CBG-treated group already at day 12"},
      {"measurement": "iNOS expression by western blot in sorted subsets", "setting": "BM-MDSCs [2]; CM from treated B16F10 vs CM of DMSO-treated B16F10, sorted MO-MDSC and PMN-MDSC", "value": "reduction of iNOS expression specifically in MO-MDSCs"},
      {"measurement": "iNOS expression by MO-MDSC", "setting": "BM-MDSCs [2]; [5]", "value": "significantly decreased iNOS expression"},
      {"measurement": "iNOS expression by PMN-MDSC", "setting": "BM-MDSCs [2]; [5]", "value": "did not detect a significant decrease in iNOS expression"},
      {"measurement": "Arg-1 expression in MO-MDSCs and PMN-MDSCs", "setting": "BM-MDSCs [2]; CM of treated B16F10 vs CM of DMSO-treated B16F10, 24 hours, flow cytometry, neither subpopulation", "value": "did not detect a significant difference in Arg-1 expression"},
      {"measurement": "iNOS expression in directly treated BM-MDSCs (each subpopulation)", "setting": "BM-MDSCs [2]; medium from untreated B16F10 together with 2 g/ml CBG or 6 μg/ml 3704 for 24 hours, vs DMSO", "value": "did not detect any significant differences"},
      {"measurement": "overall percentage of monocytes (Ly6C+/Ly6G− cells)", "setting": "BM-MDSCs [3]; BM-MDSCs treated 24 hours with CM from B16F10 treated with CBG 1.5 μg/ml or 3704 2 μg/ml", "value": "did not change"},
      {"measurement": "PMN-MDSC frequencies (Ly6C+/Ly6G+)", "setting": "BM-MDSCs [3]; CM from B16F10 treated with CBG 1.5 μg/ml or 3704 2 μg/ml", "value": "not affected by any treatment"},
      {"measurement": "MO-MDSC (Ly6Chigh/Ly6G−) percentages", "setting": "BM-MDSCs [3]; CM from B16F10 treated with CBG 1.5 μg/ml or 3704 2 μg/ml, compared to B16F10 treated with DMSO", "value": "significant decrease in MO-MDSC percentages"},
      {"measurement": "reduction in the F4/80 MFI in Ly6C+ cells compared to DMSO", "setting": "BM-MDSCs [3]; 24 hours", "value": "trend was apparent after 24 hours"},
      {"measurement": "reduction in the F4/80 MFI in Ly6C+ cells compared to DMSO", "setting": "BM-MDSCs [3]; 48 hours", "value": "statistically significant after 48 hours"},
      {"measurement": "CSF-1 secretion by A375 cells", "setting": "CSF-1 [4]", "value": "reduced CSF-1 secretion"}
    ]}
  ]
}
